Data reported in US20230115350A1 (Cedilla Therapeutics, Inc., priority 2021, published 2023).

How the values were obtained:
[1] = target: TEAD1 protein (YAP Binding Domain) (Homo sapiens, UniProt P28347); test: TEAD1 lipid pocket compound displacement assay (TR-FRET, Cy5-probe); conditions: 60 minutes incubation at room temperature; TR-FRET 665 nm/620 nm; read-out: CDA IC50
Method: Compound Displacement Assay.
A TEAD1 lipid pocket displacement assay was carried out according to the following protocol. Purified His-tagged TEAD1 protein (YAP Binding Domain) was pre-mixed with a Cy5-probe (Cy5-conjugated to a small molecule that binds in the TEAD1 lipid pocket) and Terbium-labeled anti-His antibody (Cisbio Cat 61HI2TLB). The binding of the Cy5-probe to anti-His-Tb/His-tag TEAD1 complex yielded a TR-FRET signal. […] After 60 minutes incubation at room temperature of compounds with the His-TEAD1/anti-His-Tb/Cy5-probe complex, the plate was read on a plate reader (BMG ClarioStar Cat 430-1300) using TR-FRET mode with wavelengths of 665 nm/620 nm. The potency of compounds as TEAD1 lipid pocket binders was determined by IC50 value generated using a non-linear 4 parameter curve fit.

NCI-H226 = test: 72H TEAD Proliferation Assay (Cell Titer-Glo 2.0); assay type: cell-based; conditions: Homo sapiens, NCI-H226, 72 h, CTG 2.0, cell line not given
Method: The effect of TEAD inhibition on cell proliferation was assayed using Cell Titer Glo (CTG) 2.0 to measure response in mesothelioma cell lines NCI-H226 (ATCC, #CRL-5826) and NCI-H28 (ATCC, #CRL-5820).
The 72H TEAD Proliferation assay utilizes Cell Titer-Glo 2.0 (Promega, #G9243) to measure the proliferation of cells in the presence or absence of compound. Cell Titer-Glo 2.0 determines the amount of viable cells by quantifying ATP (an indication of metabolically active cells). It utilizes the conversion of Luciferin to Oxyluciferin and a luminescent signal with the use of ATP to report the quantity of viable cells in culture. Within cells that are continually growing, ATP is being synthesized to meet their metabolic demands, meanwhile the opposite is true for cells that are dying or slowing down their proliferation and either no longer using ATP or are using less, respectively. The NF2-deficient NCI-H226 has been genetically validated as a cell line that is sensitive to TEAD inhibition. The NF2-wild type NCI-H28 has been genetically validated as a cell line that is not sensitive to TEAD inhibition and grows independently of TEAD activity.
Compounds were screened against the responsive NCI-H226 cell line to assess the compounds' ability to inhibit TEAD and cell growth. Compounds were also screened against the non-responsive NCI-H28 cell line to ascertain whether the inhibition of cell growth was due to inhibition of the target TEAD or whether the inhibition was due to off-target cytotoxicity.
1) Assay ready plates (ARPs) were prepared by Echo acoustic liquid handler. For each compound, duplicate of 10-point half-log dilution series were dispensed in a 384-well microplate (Corning 3571).
5) NCI-H226 or NCI-H28 cells were harvested from culture in Assay Medium 1 and the multidrop Combi reagent dispenser was used to seed cells at 500 cells per 50 ul in each well of the ARPs and one Corning 3571 plate without compounds for Time 0 (TO) readout.
6) The TO plate was incubated for 2 hours at 37° C. with 5% CO2 to allow cells to settle, then the CTG Assay was performed.
7) All ARPs were incubated for 72 hours at 37° C. with 5% CO2, then the CTG Assay was performed for Time 72H (T72) readout.
8) CTG Assay: Bravo liquid handler (Agilent) was used to add 25 ul of CTG 2.0 to all columns of the plate except for Column 24, which was used to subtract out the background. After CTG addition, plates were placed on shaker at 800 RPM for 15 minutes at room temperature and kept in the dark. Luminescence was measured using EnVision multilabel plate reader with ultra-sensitive detection module.
9) Data Analysis: First background luminescence (no CTG wells) was subtracted from luminescence reading of all wells, then TO luminescence was subtracted from T72 luminescence. To compare anti-proliferative effect of compounds, GI50 was obtained by fitting dose response curves with nonlinear regression curve fit.

Sequence of TEAD1 protein (YAP Binding Domain) (P28347 209-426 limits assumed): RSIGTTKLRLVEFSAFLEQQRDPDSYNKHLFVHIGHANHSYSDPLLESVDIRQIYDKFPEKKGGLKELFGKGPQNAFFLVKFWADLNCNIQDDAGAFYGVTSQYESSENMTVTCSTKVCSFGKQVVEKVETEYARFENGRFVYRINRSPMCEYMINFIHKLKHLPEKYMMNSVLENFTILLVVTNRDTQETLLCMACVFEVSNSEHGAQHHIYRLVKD

## C=CC(=O)Nc1ccc2c(c1)OC(C)(c1cccc(C(F)(F)F)c1)O2 (centres unmarked) [147*, N-(2-methyl-2-(3-(trifluoromethyl)phenyl)benzo[d][1,3]dioxol-5-yl)acrylamide]
[1]
  IC50: ≤ 250 nM
NCI-H226
  GI50: 250 to 1000 nM

## C=CC(=O)Nc1ccc(CCc2cccc(F)c2)c(F)c1 [Compound 1, N-(3-fluoro-4-(3-fluorophenethyl)phenyl)acrylamide]
[1]
  IC50: ≤ 250 nM
NCI-H226
  GI50: 1000 to 3000 nM

## C=CC(=O)Nc1ccc(OCc2cccc(F)c2)c(C2CCCCC2)c1 [Compound 3, N-(3-cyclohexyl-4-((3-fluorobenzyl)oxy)phenyl)acrylamide]
[1]
  IC50: 500 to 2000 nM
NCI-H226
  GI50: > 3000 nM

## C=CC(=O)Nc1ccc(OCc2cccc(F)c2)c(C(F)(F)F)c1 [Compound 9, N-(4-((3-fluorobenzyl)oxy)-3-(trifluoromethyl)phenyl)acrylamide]
[1]
  IC50: ≤ 250 nM
NCI-H226
  GI50: > 3000 nM

## C=CC(=O)Nc1ccc(OCC2CCC(F)(F)CC2)c2ccncc12 [Compound 19, N-(5-((4,4-difluorocyclohexyl)methoxy)isoquinolin-8-yl)acrylamide]
[1]
  IC50: > 2000 nM
NCI-H226
  GI50: > 3000 nM

## C=CC(=O)Nc1ccc(OCC2CCC(F)(F)CC2)cc1C#N [Compound 20, N-(2-cyano-4-((4,4-difluorocyclohexyl)methoxy)phenyl)acrylamide]
[1]
  IC50: ≤ 250 nM
NCI-H226
  GI50: 250 to 1000 nM

## C=CC(=O)Nc1ccc(OCC2CCC(F)(F)CC2)c2ocnc12 [Compound 21, N-(7-((4,4-difluorocyclohexyl)methoxy)benzo[d]oxazol-4-yl)acrylamide]
[1]
  IC50: ≤ 250 nM
NCI-H226
  GI50: ≤ 250 nM

## C=CC(=O)Nc1ccc(OCC2CCC(F)(F)CC2)c2[nH]cnc12 [Compound 22, N-(7-((4,4-difluorocyclohexyl)methoxy)-1H-benzo[d]imidazol-4-yl)acrylamide]
[1]
  IC50: 500 to 2000 nM
NCI-H226
  GI50: 250 to 1000 nM

## C=CC(=O)Nc1ccc(OCC2CCC(F)(F)CC2)c2ccnn12 [Compound 23, N-(4-((4,4-difluorocyclohexyl)methoxy)pyrazolo[1,5-a]pyridin-7-yl)acrylamide]
[1]
  IC50: ≤ 250 nM
NCI-H226
  GI50: 1000 to 3000 nM

## C=CC(=O)Nc1ccc(OCC2CCCC(F)(F)C2)c(F)c1 (centres unmarked) [Compound 24, N-(4-((3,3-difluorocyclohexyl)methoxy)-3-fluorophenyl)acrylamide]
[1]
  IC50: ≤ 250 nM
NCI-H226
  GI50: ≤ 250 nM

## C=CC(=O)Nc1ccc(OCc2cccc(CC)c2)c(F)c1 [Compound 26, N-(4-((3-ethylbenzyl)oxy)-3-fluorophenyl)acrylamide]
[1]
  IC50: ≤ 250 nM
NCI-H226
  GI50: 250 to 1000 nM

## C=CC(=O)Nc1ccc(/C=C/c2cccc(F)c2)c(F)c1 [Compound 27, (E)-N-(3-fluoro-4-(3-fluorostyryl)phenyl)acrylamide]
[1]
  IC50: 500 to 2000 nM
NCI-H226
  GI50: 1000 to 3000 nM

## C=CC(=O)Nc1ccc(COc2cccc(F)c2)c(F)c1 [Compound 28, N-(3-fluoro-4-((3-fluorophenoxy)methyl)phenyl)acrylamide]
[1]
  IC50: 250 to 500 nM
NCI-H226
  GI50: 250 to 1000 nM

## C=CC(=O)Nc1ccc(COc2cccc(C(F)(F)F)c2)c(F)c1 [Compound 31, N-(3-fluoro-4-((3-(trifluoromethyl)phenoxy)methyl)phenyl)acrylamide]
[1]
  IC50: ≤ 250 nM
NCI-H226
  GI50: ≤ 250 nM

## C=CC(=O)Nc1ccc(OCc2cccc(C(F)(F)F)c2)c(C#N)c1 [Compound 38, N-(3-cyano-4-((3-(trifluoromethyl)benzyl)oxy)phenyl)acrylamide]
[1]
  IC50: 500 to 2000 nM
NCI-H226
  GI50: 1000 to 3000 nM

## C=CC(=O)Nc1ccc(OCc2cccc(F)c2Cl)c(C#N)c1 [Compound 39, N-(4-((2-chloro-3-fluorobenzyl)oxy)-3-cyanophenyl)acrylamide]
[1]
  IC50: 250 to 500 nM
NCI-H226
  GI50: ≤ 250 nM

## C=CC(=O)Nc1ccc(OCc2ccc(F)c(F)c2)c(C#N)c1 [Compound 40, N-(3-cyano-4-((3,4-difluorobenzyl)oxy)phenyl)acrylamide]
[1]
  IC50: 500 to 2000 nM
NCI-H226
  GI50: 1000 to 3000 nM

## C=CC(=O)Nc1ccc(OCc2cncc(C(F)(F)F)c2)c(C#N)c1 [Compound 41, N-(3-cyano-4-((5-(trifluoromethyl)pyridin-3-yl)methoxy)phenyl)acrylamide]
[1]
  IC50: > 2000 nM
NCI-H226
  GI50: > 3000 nM

## C=CC(=O)Nc1ccc(OCc2cncc(C(F)(F)F)c2)cc1C#N [Compound 42, N-(2-cyano-4-((5-(trifluoromethyl)pyridin-3-yl)methoxy)phenyl)acrylamide]
[1]
  IC50: > 2000 nM
NCI-H226
  GI50: 250 to 1000 nM

## C=CC(=O)Nc1ccc(OCc2cccc(F)c2)cc1F [Compound 45, N-(2-fluoro-4-((3-fluorobenzyl)oxy)phenyl)acrylamide]
NCI-H226
  GI50: > 3000 nM

## C=CC(=O)Nc1ccc(OCC2CCC(F)(F)CC2)c2ccccc12 [Compound 49, N-(4-((4,4-difluorocyclohexyl)methoxy)naphthalen-1-yl)acrylamide]
[1]
  IC50: ≤ 250 nM
NCI-H226
  GI50: ≤ 250 nM

## C=CC(=O)Nc1ccc(OCc2cccc(C#N)c2)c(F)c1 [Compound 92, N-(4-((3-cyanobenzyl)oxy)-3-fluorophenyl)acrylamide]
[1]
  IC50: 500 to 2000 nM

## C=CC(=O)Nc1ccc(OCc2cccc(C)c2)c(F)c1 [Compound 93, N-(3-fluoro-4-((3-methylbenzyl)oxy)phenyl)acrylamide]
[1]
  IC50: ≤ 250 nM

## C=CC(=O)Nc1ccc(OCCCC(F)(F)F)c(F)c1 [Compound 94, N-(3-fluoro-4-(4,4,4-trifluorobutoxy)phenyl)acrylamide]
[1]
  IC50: 500 to 2000 nM

## C=CC(=O)Nc1ccc(OCc2cccc(F)c2F)c(F)c1 [Compound 95, N-(4-((2,3-difluorobenzyl)oxy)-3-fluorophenyl)acrylamide]
[1]
  IC50: 250 to 500 nM

## C=CC(=O)Nc1ccc(OCc2cc(F)cc(F)c2)c(F)c1 [Compound 97, N-(4-((3,5-difluorobenzyl)oxy)-3-fluorophenyl)acrylamide]
[1]
  IC50: 250 to 500 nM

## C=CC(=O)Nc1ccc(Oc2ccc(C3CCCCC3)cc2)c(F)c1 [Compound 102, N-(4-(4-cyclohexylphenoxy)-3-fluorophenyl)acrylamide]
[1]
  IC50: ≤ 250 nM

## C=CC(=O)Nc1ccc(C(=O)Nc2cccc(F)c2)c(F)c1 [Compound 118, 4-acrylamido-2-fluoro-N-(3-fluorophenyl)benzamide]
[1]
  IC50: > 2000 nM

## C=CC(=O)Nc1ccc(C2CCc3ccccc3C2)c(F)c1 (centres unmarked) [Compound 119, N-(3-fluoro-4-(1,2,3,4-tetrahydronaphthalen-2-yl)phenyl)acrylamide]
[1]
  IC50: 500 to 2000 nM

## C=CC(=O)Nc1ccc(OC(C)c2ccccc2Cl)c(F)c1 (centres unmarked) [Compound 123, N-(4-(1-(2-chlorophenyl)ethoxy)-3-fluorophenyl)acrylamide]
[1]
  IC50: 500 to 2000 nM

## C=CC(=O)Nc1ccc(OCc2cccc(F)c2)c(F)n1 [Compound 127, N-(6-fluoro-5-((3-fluorobenzyl)oxy)pyridin-2-yl)acrylamide]
[1]
  IC50: ≤ 250 nM

## C=CC(=O)Nc1cc(F)c(OCc2cccc(F)c2)cn1 [Compound 128, N-(4-fluoro-5-((3-fluorobenzyl)oxy)pyridin-2-yl)acrylamide]
[1]
  IC50: ≤ 250 nM

## C=CC(=O)Nc1ccc(OCc2cccc(F)c2)c(C#N)c1 [Compound 130, N-(3-cyano-4-((3-fluorobenzyl)oxy)phenyl)acrylamide]
[1]
  IC50: 500 to 2000 nM

## C=CC(=O)Nc1ccc(C2COc3ccccc3C2=O)c(F)c1 (centres unmarked) [Compound 131, N-(3-fluoro-4-(4-oxochroman-3-yl)phenyl)acrylamide]
[1]
  IC50: 500 to 2000 nM

## C=CC(=O)Nc1cc2nc(CCCC(F)(F)F)oc2cc1F [Compound 133, N-(6-fluoro-2-(4,4,4-trifluorobutyl)benzo[d]oxazol-5-yl)acrylamide]
NCI-H226
  GI50: ≤ 250 nM

## C=CC(=O)Nc1cc2nc(CCc3cccc(F)c3)oc2cc1F [Compound 139, N-(6-fluoro-2-(3-fluorophenethyl)benzo[d]oxazol-5-yl)acrylamide]
[1]
  IC50: 250 to 500 nM
